# Marks after values point to notes of the source that are not given here.
# What was measured:
# [1] = test system: Lung M109 syngeneic solid tumors; experiment: In vivo M109 tumor model; parameters: species or system Balb/C mice; conditions: i.v. day 1 & 4; for T/C (%) at Day 18: control median tumor volume approx. 1000 mm^3; for T/C (%) at Day 25: control median tumor volume approx. 2000 mm^3
# Protocol: M109 cells (NCI), derived from donor mice, were grown and expanded in tissue culture for in vivo implantation. Cells were grown in EMEM with 10% FBS and 1% streptomycin/penicillin media, kept in an incubator at 37° C. with 5% CO2and split twice a week. Cells were trypsinized, harvested, washed, counted and prepared in PBS for transport to the vivarium. Cells were kept on ice until implantation was conducted with minimum lag time. A cell suspension of approximately 5×10^6 cells/mL was used. Balb/C mice were implanted subcutaneous with 100 μL of the above cell suspension (Day 0). Treatments were administered intravenously on Day 1 and Day 4. Compound doses were based on the content of 6-MP. Body weight and tumor volume were then measured twice weekly until the group's median tumor volume exceeded 2000 mm^3. The tumor volume for each mouse was determined by measuring two dimensions with calipers and calculated using the formula: tumor volume=(length×width^2)/2. Drug effects were determined by comparing tumor growth in treated versus control (no vehicle) mice. Two types of endpoints were used as the basis for comparison: (a) the percent difference in tumor volume (% T/C), measured when the control group's median tumor volume reached approximately 800-1100 mm^3 (exponential growth phase) and (b) again when the control group's median tumor volume was approximately 2000 mm^3.
# P388/0 cell lines = experiment: Cytotoxicity assay, Alamar Blue cell growth; assay type: cell-based; conditions: Mus musculus, 72 h, P388/0 cells, 3 days
# Protocol: Cell Lines and Cytotoxicity Assays. Studies using P388/0 cell lines for IC50 (drug concentration inhibiting growth of cells by 50%) were maintained and conducted as previously reported. Briefly, for IC50 determination, cells were seeded into the microwell plates at a density of 2×10^3 cells per 50 μL per well. Plates were incubated at 37° C. in a humidified incubator with 5% CO2 for 3 days. Cell growth was measured by the addition of 10 μL/well of Alamar Blue (Alamar Biosciences, Inc., Sacramento, Calif.) and the plates were incubated a further 4 hours at 37° C. The IC50values for each compound were determined from absorbance versus dilution factor plots. All cell cultures for animal implantation were maintained at 37° C. in a humidified atmosphere of 5% CO2/[…] and subcultured once a week. All cell lines were periodically tested for Mycoplasma and were Mycoplasma free.
# Solubility in water = assay type: physicochemical
# [2] = test system: murine leukemia cell line L1210/O; experiment: In vivo L1210 tumor model (ascites); parameters: species or system mouse; conditions: Q2d×6, IP, intralipid
# Text: 6-MP and pro-drug forms of 6-MP were screened for in vivo activity against the murine leukemia cell line L1210/O (mouse, lymphocytic leukemia). The cell line was obtained from Southern Research Institute (Birmingham, Ala.) and grown in DMEM supplemented with 10% horse serum. L 1210/O cells were subcultured two times per week and log phase cultures (viability≧95%) were used for all in vivo experiments. Female CD2F1 mice (Taconic Farms, Germantown, N.Y.) at 7-8 weeks of age were used for study. Following one week of acclimation, mice were implanted i.p. with L1210/0 cells (5×10^5 cells/mouse) at designated day 0. The mice were randomly assigned to experimental groups (8-10/group). The groups included control, 6-MP and PEG-6-MP conjugates. 6-MP was solubilized in 3% DMSO and suspended in intralipid and administered Q2d×6, IP. PEG-6-MP was dissolved in phosphate buffer (pH 5.8) and administered Q4d×3, IV. Control groups received vehicle (intralipid or phosphate buffer). The mice were monitored for up to 40 days, and the treatment was evaluated as percentage of increase in life span (ILS).
# [3] = total dose 200 mg/kg (6-MP content)
SMILES,T/C (%) at Day 18 ([1]; total dose 40 mg/kg) [%],T/C (%) at Day 25 ([1]; total dose 40 mg/kg) [%],IC50 (P388/0 cell lines) [µM],"Anti-tumor activity, inhibiting the growth of M109 solid tumors (in words) ([1]; Balb/C mice)","T/C (%) at Day 18 [1, 3] [%]","T/C (%) at Day 25 [1, 3] [%]",solubility (Solubility in water) [mg/mL],% ILS (percent increase in life span) ([2]; total dose 90 mg/kg) [%],% ILS (percent increase in life span) ([2]; total dose 240 mg/kg)
"Nc1nc2nc[nH]c2c(=S)[nH]1 [6-TG (2), 6-thioguanine]",82,78,0.36,–,–,–,–,–,–
"Sc1ncnc2nc[nH]c12 [6-MP (1), 6-mercaptopurine]",–,–,–,ineffective,144,184,< 0.1,31.8,52.5* %

# From patent publication US7262164B2, “Polymeric thiol-linked prodrugs employing benzyl elimination systems” (Enzon, Inc., priority 2001, dated 2007)
